According to publication PMC8653149, “Cyclic Analogs of Desferrioxamine E Siderophore for ^68Ga Nuclear Imaging: Coordination Chemistry and Biological Activity in Staphylococcus aureus” (Inorganic Chemistry, 2021):

Legend:
Assay type in all cases: physicochemical
[1] = Ga(III) complex stability constants by Fe(III)–Ga(III) metal–metal competition, potentiometric and UV–vis pH-metric titrations; conditions: for pGa(III): calculated, pH 7.4; for logβ[GaHL]+: competition UV-Vis titrations; for logβ[GaHL]+ / logβ[GaL]: M:L 1:1, T = 25°C; for logβ[GaHL]+ / logβ[GaL] / pKNHOH (pK of [GaL] formation from [GaHL]+): I = 0.1 M NaClO4; for pKNHOH (pK of [GaL] formation from [GaHL]+): T = 25 °C
From the text: The next step was to determine the coordination specificity of investigated ligands toward Ga(III) ions. This is a somewhat challenging task because it requires indirect methods since the investigated complexes started to form in a very acidic environment, where potentiometric measurements were not accurate owing to the error of the glass electrode,[55],[56] and gallium is spectroscopically silent in UV–vis. To bypass this inconvenience, we implemented metal–metal competition assays. After addition of a significant molar excess of Ga(III), the LMCT band of Fe(III)-FOXE analog complexes was almost fully silenced as Ga(III) replaced Fe(III) in its complexes (Figure S5). By implementing those spectral changes, we were able to calculate the stability constants of the Ga(III)-FOXE analog species present below or around pH 2, [GaHL]^+ (Table S8). Stability constants for the [GaL] species, present above pH 2, could be determined by potentiometric titrations for Ga(III)-FOX 2-2, 2-3, 2-4, and 3-5, with logβ of [GaHL]^+ fixed in the calculations (Table S8). For Ga(III)-FOX 2-5, we could not observe any deprotonation step using this methodology. To confirm this behavior, UV–vis titration of the Ga(III)-FOX 2-5 analog complex was performed in the 200–300 nm spectral range (Figure S6) corresponding to the hydroxamate groups’ protonation state.[57]−[59] […] Above pH 4, there were no significant changes in maxima localization or absorbance intensity. Above pH 9, absorbance started to rise again, which indicated complex dissociation. […] Overall, the data indicated a decreased stability of [GaL] species when decreasing or increasing the ring size of Ga(III)-FOX 2-5, as reflected by pKNHOH (Table S8). Implementing this full coordination specification of Ga(III)-FOX complexes, we were able to calculate speciation plots which are presented in Figure 1 for the most efficient analogs FOX 2-4 and FOX 2-5, given here as examples, and in Figure S7 for others.
Proposed biomimetic analogs of cyclic siderophore FOXE bind Fe(III) ions starting from pH around 0, and the complexation is essentially complete far below or around pH of 2. Therefore, the stability constants of the first species formed in solution were determined from the spectrophotometric pH-dependent batch titrations carried out in the pH range of around 0.1–2 (Figure S3), by following the changes in the intense LMCT band of the metal complex. These values were further used as constant values in spectrophotometric or potentiometric titrations carried out in the pH range from 2 to 11 (Figure S3) to get the overall stability constants, logβFeL (Table S5). Since Ga(III)-FOX complexes present similar coordination properties, the first species start to form below pH 2 as well. However, in this case, we have used indirect methods to determine stability constants for Ga(III)-FOXE analogs and the Ga(III) complex with native FOXE, as Ga(III) complexes are spectroscopically silent in the UV–vis region. Metal–metal competition titrations were carried out at pH 1.6 for FOX 2-5 and FOX 2-4 and at pH 2 for the rest of the analogs and the native compound. The intense LMCT band of the Fe(III) complex was silenced after addition of a fixed volume of Ga(III) ions (Figure S5).
Potentiometric titrations were performed using an automatic titrator system Titrando 905 (Metrohm) equipped with a 800 Dosino dosing unit and a microburet with a volume of 2 mL. A combined glass electrode was calibrated each day for hydrogen ion concentration by 0.1 M HClO4 with CO2-free 0.1 M NaOH solutions. A stream of high purity grade argon, presaturated with water vapor, passed over the surface of the solution cell, filled with 3 mL of the studied solution. For each system, a minimum of four independent titrations was performed. […]

[2] = Cyclic voltammetry of Fe(III)-FOXE derivative complexes (redox potential, Fe(II) stability constants); conditions: for E1/2 vs NHE: CV; for E1/2 vs NHE / logβFe(II): [L] = 2 × 10^–3 M, M:L 1:1, pH = 7, T = 25 °C; for E°complex: [Fe(III)] = 2·10^-3 M, M:L ratio 1:1, pH = 7, T = 25°C, I = 0.1M NaClO4, glass-carbon working electrode; for logβFe(II): calculated from CV measurement
Description: Redox chemistry of Fe(III) species was determined in cyclic voltammetry (CV) assays. […] We have obtained quasireversible voltammograms for Fe(III)-FOXE analog complexes (Figure S8), with ΔE ranging from −369 mV to −470 mV. The values of E1/2 (Table 1) were recalculated vs normal hydrogen electrode (NHE). To ensure that only fully hexacoordinated complexes [FeL] were characterized, experiments were carried out at fixed pH = 7 where this form is dominating in solution. Higher strength of the complex (larger pM value) correlates to lower redox potential. This behavior was in agreement with previously reported data[61],[62] for similar complexation systems.
Redox potentials for Fe(III)-FOXE derivatives were determined using cyclic voltammetry with a VA 797 Computrace Voltammeter (Metrohm) equipped with glass-carbon, AgCl/Cl, and platinum wire electrodes. Concentration of the measured samples was [Fe(III)] = 2 × 10^–3, M:L ratio 1:1, at 25.0 ± 0.1 °C; pH 7.0 was provided by addition of a suitable amount of NaOH under control of a pH meter. The scan range was from −0.3 V to −1 V in a cycle: Fe(III)–FOX [drawing 1] Fe(II)–FOX [drawing 2] Fe(III)–FOX. Received data (Figure S8) was standardized for the NHE electrode. The electrochemical data were refined to obtain the overall Fe(II)-FOXE derivative binding constant (logβFe(II)L^–) by implementing the Nernst equation (S1).
Figure S8. CV voltammograms used to calculate (logβ) constants for studied complexes a with
Fe(II) ions: a) FOX 2-2, b) Fe-FOX 2-3, c) FOX 2-4, d) FOX 2-5, e) FOX 3-5
aConditions: [Fe(III)] = 2·10^-3 M, M:L ratio 1:1, pH = 7, T = 25°C, I = 0.1M NaClO 4 on glass-carbon working
For each complex the stability constant for Fe(II)-analog was calculated using eq. S10
E complex ― Eaq = ―59.15log (βII) (S10)
Table S9. E 1/2 and stability (logβ) constants for studied complexes with Fe(II) ions a […]

[3] = Ligand–ligand competition UV–vis titrations of Fe(III) complexes vs EDTA; conditions: [L] = 1.5·10^-4 M, M:L ratio 1:1, pH = 7, T = 25°C, I = 0.1 M NaClO4
Description: In this series of experiments, the stock solution of FOX ligand was divided into various batches followed by metal addition with a constant total volume of 2 mL, [Fe(III)] = 2 × 10^–4, and a metal-to-ligand molar ratio of 1:1. The EDTA ligand was added to a previously prepared series of solutions in increasing concentration, from a 0 to 10 molar excess for FOX 2-5 and from a 0 to 1.2 molar excess for the rest of the derivatives. pH was adjusted to ∼7 with the NaOH solution. After preparation, each solution was allowed to equilibrate for 3–7 days, depending on the investigated complex. Changes were observed between the collected spectra, and they were measured consequently until no further changes were present. The UV–vis spectra were recorded (Figure S4), and competition data were refined to obtain the overall Fe(III)-FOXE derivative binding constant (logβFe(III)L). The protonation constants of FOXE derivatives (Table S4) and formation constants for Fe(III)-FOXE derivative complex species (Table S5) were treated as fixed parameters in data analysis.
The spectrophotometric competition experiments with EDTA
The spectrophotometric competition experiments with EDTA were performed at fixed pH 7.0,
to compete effectively with the tris-hydroxamates for ferric ion at intermediate pH values (5-8)
if an excess of EDTA is used. The competition equilibrium is described by equations (S5) and
Fe IIIL  EDTA K  FeIII EDTA  L (S5)
[FeIII L][EDTA]  Fe(III)L (S6)
The competition data were refined to obtain the overall Fe(III)-FOX binding constant logβ FeL
(Table S7) for analogs using a model involving two ligands and one metal.
The concentration of Fe(III)-analog complex for each derivative, [FeL], was calculated from
the absorbance maximum at around 420 nm (where FeL is the only light-absorbing species) and
previously determined extinction coefficients. The concentrations of other species in equation
(S6) were calculated from mass balance equations using the experimental pH values:
[Fe]tot =  FeL[FeL] +  FeEDTA[FeEDTA]
[L]tot =  FeL[FeL] +  L[L]
[EDTA]tot =  FeEDTA[FeEDTA] +  EDTA[EDTA]
a is the usual Ringbom’s coefficient.

[4] = potentiometric, [L] = 1·10^-3 M

SMILES | pGa(III) [1] | logβ[GaHL]+ ([1]; [L] = 1·10^-4 M) | logβ[GaL] [1, 4] | E1/2 vs NHE [2] | E°complex [2] [mV] | logβFe(II) [2] | logβ[FeL] [3] | pKNHOH (pK of [GaL] formation from [GaHL]+) [1] | logβ[GaL] ([1]; UV-Vis (metal–metal competition) titrations, [L] = 1·10^-4 M)
O=C1CCN(O)C(=O)CCNC(=O)CCN(O)C(=O)CCNC(=O)CCN(O)C(=O)CCN1 [FOX 2-2] | 21.4 | 28.48 (4) | 26.52 (5) | –369 mv | -369 | 7.48 | 26.57 (4) | – | –
O=C1CCCN(O)C(=O)CCNC(=O)CCCN(O)C(=O)CCNC(=O)CCCN(O)C(=O)CCN1 [FOX 2-3] | 20.8 | 28.30 (4) | 26.02 (1) | –432 mv | -432 | 7.54 | 26.55 (3) | 2.28 | –
O=C1CCCCN(O)C(=O)CCNC(=O)CCCCN(O)C(=O)CCNC(=O)CCCCN(O)C(=O)CCN1 [FOX 2-4] | 21.8 | 28.84 (5) | 26.28 (1) | –426 mv | -426 | 9.12 | 27.13 (1) | 2.56 | –
O=C1CCCCCN(O)C(=O)CCNC(=O)CCCCCN(O)C(=O)CCNC(=O)CCCCCN(O)C(=O)CCN1 [FOX 2-5] | 25.2 | – | – | –452 mv | -452 | 11.29 | 28.81 (1) | – | 29.52 (6)
O=C1CCCCCN(O)C(=O)CCCNC(=O)CCCCCN(O)C(=O)CCCNC(=O)CCCCCN(O)C(=O)CCCN1 [FOX 3-5] | 22.6 | 29.45 (1) | 26.58 (4) | –416 mv | -416 | 8.48 | 28.38 (1) | 2.87 | –
